One data set in a line: in vitro. The note with it: PAMPA.
A further data set is described as follows: physchem. The settings on record: octanol/water.

As to `N#C[C@H](CC(N)=O)NC(=O)[C@@H]1CCCN1C(=O)Cc1ccccc1`, the Papp in “in vitro” is 2.7 ×10⁻⁶ cm/s.
The molecule `N#C[C@H](CC(N)=O)NC(=O)[C@@H]1CCCN1C(=O)C1(c2ccc(F)cc2)CC1` came in with a Papp in the data set “in vitro” of 2.9 ×10⁻⁶ cm/s. Further, the pH-dependent lipophilicity (logD) in the data set “physchem” was 0.5.
Consider `NC(=O)CN(NC(=O)[C@@H]1CCCN1C(=O)C1(c2ccc(OC(F)(F)F)cc2)CC1)C(=O)CCl`, for which the log distribution coefficient (logD) in the data set “physchem” was determined as 1.9.
As to `C#C[C@H](CC(N)=O)NC(=O)[C@@H]1C[C@H](C)CN1C(=O)C1(c2ccc(OC(F)(F)F)cc2)CC1`, the Papp in “in vitro” came out at 1.5 ×10⁻⁶ cm/s. This molecule also had a logD in “physchem” of 2.3.
For the molecule `C#C[C@H](CC(N)=O)NC(=O)[C@@H]1CCCN1C(=O)[C@]1(c2ccc(OC(F)(F)F)cc2)C[C@H](F)C1`, the log distribution coefficient (logD) in the data set “physchem” was 1.7.
Same read-out and setting: as for `C#C[C@H](CC(N)=O)NC(=O)[C@@H]1CCCN1C(=O)[C@]1(c2ccc(OC(F)(F)F)cc2)C[C@@H](F)C1`, the figure is 2.1.
`C#C[C@H](CC(N)=O)NC(=O)[C@@H]1C[C@@H](C)CN1C(=O)C1(c2ccc(OC(F)(F)F)cc2)CC1` gave an apparent permeability coefficient (Papp) in “in vitro” of 2.8 ×10⁻⁶ cm/s. Also, in “physchem”, the log distribution coefficient (logD) turned out to be 2.2.

Source of the values: ChEMBL document CHEMBL5375996, “Discovery of Orally Available and Brain Penetrant AEP Inhibitors” (J Med Chem, 2023).
